In patent US20230159510A1, “NOVEL PRMT5 INHIBITORS” (AMGEN INC., priority 2020, published 2023):
Read-outs that look alike come from different tables or passages of the source.

What was measured:
HCT116 WT cells = test: HCT116 proliferation assay, WT cells (CellTiter-Glo, 6 days); type: cell-based; details: Homo sapiens, HCT-116, 144 h, read-out: Prolif_HCT116-WT IC50
How it was run: (§1)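 Seed cells in RPMI 1640 supplemented with 10% FBS and incubate overnight at 37° C under 5% CO2. Treat with serially diluted compound (threefold steps, 8 or 9 points, highest 1 or 10 µM) or DMSO alone, then quantify viability by luminescence.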

HCT116 MTAP null cells = test: HCT116 proliferation assay, MTAP null cells (CellTiter-Glo, 6 days); type: cell-based; details: 144 h, read-out: Protif_ HCT116-MTAP null IC50
How it was run: as §1

PRMT5/MEP50 = PRMT5/MEP50 (Homo sapiens, UniProt O14744); test: MTase-Glo methyl transferase assay, Method A (Histone H4 peptide, 1 µM MTA, 24 h pre-incubation); type: biochemical; design: made in house; details: read-out: PRMT5 MTase Glo Ki (nM, Meth. A)
Sequence of PRMT5/MEP50 (O14744 whole entry): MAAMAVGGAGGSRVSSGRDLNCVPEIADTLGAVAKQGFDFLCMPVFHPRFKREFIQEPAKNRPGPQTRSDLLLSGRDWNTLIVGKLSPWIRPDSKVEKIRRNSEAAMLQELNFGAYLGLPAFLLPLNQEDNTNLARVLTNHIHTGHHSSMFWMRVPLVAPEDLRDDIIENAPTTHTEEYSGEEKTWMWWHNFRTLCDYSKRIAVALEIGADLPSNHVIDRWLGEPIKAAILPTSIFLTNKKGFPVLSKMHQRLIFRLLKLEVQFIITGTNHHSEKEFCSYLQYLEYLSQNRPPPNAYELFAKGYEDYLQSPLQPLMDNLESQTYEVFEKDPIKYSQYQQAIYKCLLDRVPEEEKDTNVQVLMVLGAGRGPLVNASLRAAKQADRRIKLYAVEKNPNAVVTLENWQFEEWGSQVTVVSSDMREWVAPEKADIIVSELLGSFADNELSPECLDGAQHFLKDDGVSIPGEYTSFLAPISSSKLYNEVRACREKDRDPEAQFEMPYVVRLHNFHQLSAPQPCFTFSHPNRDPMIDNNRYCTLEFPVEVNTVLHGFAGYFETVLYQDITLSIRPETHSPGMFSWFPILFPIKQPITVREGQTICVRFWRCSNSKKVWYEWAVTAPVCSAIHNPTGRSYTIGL
Sequence of PRMT5/MEP50 (Q9BQA1 whole entry partner): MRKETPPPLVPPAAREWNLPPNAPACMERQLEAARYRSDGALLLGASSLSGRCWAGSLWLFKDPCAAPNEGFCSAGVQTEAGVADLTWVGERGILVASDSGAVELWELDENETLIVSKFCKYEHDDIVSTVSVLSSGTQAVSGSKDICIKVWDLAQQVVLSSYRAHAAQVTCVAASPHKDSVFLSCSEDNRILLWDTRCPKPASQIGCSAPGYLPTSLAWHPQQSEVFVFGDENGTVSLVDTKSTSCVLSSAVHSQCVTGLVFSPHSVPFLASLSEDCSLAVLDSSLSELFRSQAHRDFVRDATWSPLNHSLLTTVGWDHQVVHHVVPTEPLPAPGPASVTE
Description: Method A: The PRMT5 inhibitory activity of test compounds was determined using the MTase-Glo™ assay (Promega), which monitors the product (S-adenosyl homocysteine or SAH) of methyltransferase reactions. The PRMT5 MTase-Glo assay was conducted in a 384-well white ProxiPlate (PerkinElmer) in a total volume of 12 µL. The PRMT5 enzymatic reaction (in 4 µL) contained 10 nM PRMT5/MEP50 (produced at Amgen), 5 µM S-adenosyl methionine (SAM, Promega), 1 µM Histone H4 (1-21)-Lys(Biotin) (Anaspec), 1 µM 5′-methylthioadenosine (MTA, Sigma) and two-fold serially diluted compounds in a reaction buffer of 50 mM Tris (pH 8.0), 50 mM NaCl, 0.01% Tween 20, 0.01% BSA, and 1 mM DTT. Test compounds were pre-incubated with PRMT5/MEP50, SAM, and MTA for 24 hours before addition of Histone H4 peptide to initiate the PRMT5 reaction. The reaction was allowed to proceed for 2 hours at room temperature and was then terminated by addition of 2 µL of 3X MTase-Glo™ Reagent (Promega) and 150 µM EPZ015666 (Sigma). After a 30-minute incubation at room temperature, 6 µL of MTase-Glo™ Detection Solution (Promega) was added and the plate was incubated at room temperature for an additional 30 minutes. The light signal corresponding to the amount of SAH produced by the PRMT5 reaction was subsequently measured using an Envision multimode reader (PerkinElmer). IC50 and KI values were obtained by analyzing dose-response curves using Genedata Screener (Genedata).

| IC50 (HCT116 WT cells) [nM] | IC50 (HCT116 MTAP null cells; HCT116-MTAP null) [nM] | Ki (PRMT5/MEP50) [nM] | SMILES | IC50 (HCT116 MTAP null cells) [nM] |
| --- | --- | --- | --- | --- |
| 2830 | 104 | 0.66 | Cc1cc2cc(C(=O)N(Cc3ccc(C(F)(F)F)cn3)Cc3ncccc3C)ccc2nc1N [Example 343, 2-amino-3-methyl-N-((3-methyl-2-pyridinyl)methyl)-N-((5-(trifluoromethyl)-2-pyridinyl)methyl)-6-quinolinecarboxamide] | – |
| 142 | 10 | 0.05 | Cc1cc2cc(C(=O)N(Cc3ccc(C(F)(F)F)cn3)[C@@H]3CCCc4cn[nH]c43)ccc2nc1N (single isomer, unassigned) [Example 527] | – |
| 8090 | 200 | 0.14 | C[C@H](c1ncccc1F)N(Cc1ccc(C#N)cn1)C(=O)c1ccc2nc(N)c(Br)cc2c1 [Example 352, 2-amino-3-bromo-N-((5-cyano-2-pyridinyl)methyl)-N-((1R)-1-(3-fluoro-2-pyridinyl)ethyl)-6-quinolinecarboxamide] | – |
| 7660 | 349 | 1.88 | Cc1cc2cc(C(=O)N(Cc3ccc(C#N)cn3)CC3CC3)c(F)cc2nc1N [Example 307, 2-amino-N-((5-cyano-2-pyridinyl)methyl)-N-(cyclopropylmethyl)-7-fluoro-3-methyl-6-quinolinecarboxamide] | – |
| 478 | 32 | 0.41 | Cc1c(N)nc2ccc(C(=O)N(Cc3ccc(C#N)cn3)[C@H](C)c3ncccn3)cc2c1C [Example 545, 2-amino-N-((5-cyano-2-pyridinyl)methyl)-3,4-dimethyl-N-((1R)-1-(2-pyrimidinyl)ethyl)-6-quinolinecarboxamide] | – |
| 1510 | 62 | 0.02 | Cc1cc2cc(C(=O)N(Cc3ccc(OC4CC4)cn3)[C@H](C)c3ncccn3)ccc2nc1N [Example 376, 2-amino-N-((5-(cyclopropyloxy)-2-pyridinyl)methyl)-3-methyl-N-((1R)-1-(2-pyrimidinyl)ethyl)-6-quinolinecarboxamide] | – |
| > 10000 | 541 | 0.89 | C[C@H](c1ncccn1)N(Cc1ccc(C(F)F)cn1)C(=O)c1cnc2nc(N)c(Cl)cc2c1 [Example 379] | – |
| 1830 | 54 | 0.07 | Cc1cc2cc(C(=O)N(Cc3ccc(C#N)cn3)[C@@H](c3ncccn3)C3CC3)ccc2nc1N [Example 423, 2-amino-N-((5-cyano-2-pyridinyl)methyl)-N-((R)-cyclopropyl(2-pyrimidinyl)methyl)-3-methyl-6-quinolinecarboxamide] | – |
| 4120 | 137 | 0.13 | Cc1cc2cc(C(=O)N(Cc3ccc(C(F)(F)F)nc3C)[C@H](C)c3ncccn3)ccc2nc1N [Example 509, 2-amino-3-methyl-N-((2-methyl-6-(trifluoromethyl)-3-pyridinyl)methyl)-N-((1R)-1-(2-pyrimidinyl)ethyl)-6-quinolinecarboxamide] | – |
| – | 594 | 0.31 | COc1ccc(CN(C(=O)c2cnc3nc(N)c(Br)cc3c2)[C@H](C)c2ncccn2)nn1 (single isomer, unassigned) [Example 478] | – |
| – | 73 | 0.07 | COc1ccc(CN(C(=O)c2ccc3nc(N)c(C)cc3c2)[C@H](C)c2ncccn2)nn1 (single isomer, unassigned) [Example 517, 2-amino-N-((6-methoxy-3-pyridazinyl)methyl)-3-methyl-N-((IR)-1-(2-pyrimidinyl)ethyl)-6-quinolinecarboxamide] | – |
| – | 683 | 1.23 | Cc1cc2cc(C(=O)N(Cc3ncccc3F)[C@@H]3CCc4nc(C(F)(F)F)ccc43)ccc2nc1N (single isomer, unassigned) [Example 463] | – |
| – | 27 | 0.06 | CC[C@H](c1ncccn1)N(Cc1ccc(C(F)(F)F)cn1)C(=O)c1ccc2nc(N)c(C)cc2c1 (single isomer, unassigned) [Example 489] | – |
| – | 660 | 0.83 | COc1cnc(CN(C(=O)c2ccc3nc(N)c(C)cc3c2)[C@H](C)c2ncccn2)cn1 (single isomer, unassigned) [Example 476] | – |
| – | 24 | < 0.1 | Cc1cc2cc(C(=O)N(Cc3ccc(Br)c(C)n3)[C@H](C)c3ncccn3)ccc2nc1N (single isomer, unassigned) [Example 465] | – |
| 19900 | 454 | – | C[C@H](c1ncccn1)N(Cc1ccc(C(F)(F)F)nn1)C(=O)c1cnc2nc(N)c(I)cc2c1 [Example 808, (R)-7-amino-6-iodo-N-(1-(pyrimidin-2-yl)ethyl)-N-((6-(trifluoromethyl)pyridazin-3-yl)methyl)-1,8-naphthyridine-3-carboxamide] | – |
| 1990 | 57 | – | C[C@H](c1ncn(C)n1)N(Cc1ccc(C(F)F)cn1)C(=O)c1ccc2nc(N)c(I)cc2c1 [Example 839, (R)-2-amino-N-((5-(difluoromethyl)pyridin-2-yl)methyl)-3-iodo-N-(1-(1-methyl-1H-1,2,4-triazol-3-yl)ethyl)quinoline-6-carboxamide] | – |
| > 1000 | 490 | – | Cc1cc2cc(C(=O)N(Cc3ccc(C(F)(F)F)cn3)Cc3cc(Cl)cn3C)ccc2nc1N [Example 582, 2-amino-N-((4-chloro-1-methyl-1H-pyrrol-2-yl)methyl)-3-methyl-N-((5-(trifluoromethyl)pyridin-2-yl)methyl)quinoline-6-carboxamide] | – |
| 1740 | 119 | – | CO[C@H]1Cc2ccccc2[C@@H]1N(Cc1ccc(C(F)(F)F)cn1)C(=O)c1ccc2nc(N)c(C)cc2c1 [Example 752, 2-amino-N-((1S,2S)-2-methoxy-2,3-dihydro-1H-inden-1-yl)-3-methyl-N-((5-(trifluoromethyl)-2-pyridinyl)methyl)-6-quinolinecarboxamide] | – |
| 2790 | 173 | – | C[C@H](c1cccc(F)n1)N(Cc1ccc(C(F)(F)F)cn1)C(=O)c1cnc2nc(N)c(Br)cc2c1 [Example 800, (R)-7-amino-6-bromo-N-(1-(6-fluoropyridin-2-yl)ethyl)-N-((5-(trifluoromethyl)pyridin-2-yl)methyl)-1,8-naphthyridine-3-carboxamide] | – |
| > 10000 | 440 | – | CC1CCCC1N(Cc1ccc(C(F)(F)F)cn1)C(=O)c1ccc2nc(N)c(Br)cc2c1 (stereo not shown) [Example 831, 2-amino-3-bromo-N-(2-methylcyclopentyl)-N-((5-(trifluoromethyl)pyridin-2-yl)methyl)quinoline-6-carboxamide] | – |
| 764 | 75 | – | Cc1cc2cc(C(=O)N(Cc3cc(Cl)c(C#N)cn3)[C@H](C)c3ncccn3)ccc2nc1N [Example 807, (R)-2-amino-N-((4-chloro-5-cyanopyridin-2-yl)methyl)-3-methyl-N-(1-(pyrimidin-2-yl)ethyl)quinoline-6-carboxamide] | – |
| 763 | 45 | – | COC(=O)N1CCC(c2ccc(CN(C(=O)c3ccc4nc(N)c(C)cc4c3)[C@H](C)c3ncccn3)nc2)CC1 [Example 822, methyl (R)-4-(6-((2-amino-3-methyl-N-(1-(pyrimidin-2-yl)ethyl)quinoline-6-carboxamido)methyl)pyridin-3-yl)piperidine-1-carboxylate] | – |
| > 10000 | 412 | – | Cc1cc2cc(C(=O)N(Cc3ccc(C(F)(F)F)cn3)[C@@H]3CCOC[C@H]3O)ccc2nc1N (mixture of isomers) [Example 803, 2-amino-N-((3R,4S)-3-hydroxytetrahydro-2H-pyran-4-yl)-3-methyl-N-((5-(trifluoromethyl)-2-pyridinyl)methyl)-6-quinolinecarboxamide and 2-amino-N-((3S,4R)-3-hydroxytetrahydro-2H-pyran-4-yl)-3-methyl-N-((5-(trifluoromethyl)-2-pyridinyl)methyl)-6-quinolinecarboxamide] | – |

| SMILES | IC50 (HCT116 WT cells) [nM] | IC50 (HCT116 MTAP null cells; HCT116-MTAP null) [nM] | Ki (PRMT5/MEP50) [nM] | IC50 (HCT116 MTAP null cells) [nM] |
| --- | --- | --- | --- | --- |
| Cc1cc2cc(C(=O)N(Cc3ccc(C(F)(F)F)cn3)C[C@@H](C)C(F)(F)F)ccc2nc1N (single isomer, unassigned) [Example 457] | > 10000 | – | 0.78 | 717 |
| [2H]C([2H])([2H])c1cc2cc(C(=O)N(Cc3ccc(C(F)(F)F)cn3)CC(C)C)ccc2nc1N [Example 398, 2-amino-N-isobutyl-3-(methyl-d3)-N-((5-(trifluoromethyl)pyridin-2-yl)methyl)quinoline-6-carboxamide] | 4780 | – | – | 247 |
| Cc1cc2cc(C(=O)N(Cc3ccc(C(F)(F)F)cn3)[C@H](C)c3ncccn3)ccc2nc1N [Example 503, 2-amino-3-methyl-N-((1R)-1-(2-pyrimidinyl)ethyl)-N-((5-(trifluoromethyl)-2-pyridinyl)methyl)-6-quinolinecarboxamide] | 680 | – | – | 26 |
